The record followed here is paper PMC10209615, “Pharmacological inhibition of LSD1 suppresses growth of hepatocellular carcinoma by inducing GADD45B” (MedComm, 2023).

One test relates to HuH7. Kind of test: Cell proliferation assay. The test is classed as cell-based. As to conditions: Homo sapiens, Huh-7; HuH7, 144 h. Here is the method:
(§1) Cell viability was determined using Cell Counting Kit‐8 (CCK8; Dojindo) or 3‐(4, 5‐dimethylthiazol‐2‐yl)‐2,5‐diphenyltetrazoliumbromide (MTT, Sigma Aldrich) assay. A selection of HCC cells was exposed to gradient concentration of ZY0511 for 96–144 h, or exposed to other LSD1 inhibitors including SP2509, GSK2879552, and ORY1001 for 144 h, or exposed to DTP3, which enhanced the apoptosis induction function of GADD45B for 96 h in combination therapy. Consequently, cell viability was determined using a microplate reader (Thermo Fisher) at 450 nm for CCK8 assay, or 570 nm for MTT assay, at different time points. The IC50 values and CI values were analyzed and calculated using GraphPad Prism 8 and CompuSyn (version 1.0; http://www.combosyn.com), respectively.

For the next test, the system named is JHH7. Kind of test: Cell proliferation assay. The conditions noted are these: Homo sapiens, JHH7, 144 h. The class given is cell-based. Here is the method: as §1
The test system of the next test is HepG2. Kind of test: Cell proliferation assay. The class given is cell-based. The conditions noted are these: Homo sapiens, HepG2, 144 h. Here is the method: as §1
In another test the test system is HuH6. The experiment in a line: Cell proliferation assay. The test is classed as cell-based. As to conditions: Homo sapiens, HuH-6; HuH6, 144 h. Here is the method: as §1
The subject of a further test is HCCLM3. The experiment in a line: Cell proliferation assay. The test is classed as cell-based. As to conditions: Homo sapiens, HCCLM3, 144 h. The method, then: as §1
In another test the test system is PLC/PRF/5. Kind of test: Cell proliferation assay. The test is classed as cell-based. The conditions noted are these: Homo sapiens; PLC/PRF/5, 144 h. Here is the method: as §1
For another test, the system named is Hep3B. Kind of test: Cell proliferation assay. The test is classed as cell-based. The conditions noted are these: Homo sapiens, 144 h. The method, then:
as §1

A further test relates to SK-Hep-1. The experiment in a line: Cell proliferation assay. The test is classed as cell-based. The conditions noted are these: Homo sapiens, SK-HEP1; SK-Hep-1, 144 h. The method, then: as §1
The subject of a further test is QGY7701. Kind of test: Cell proliferation assay. The class given is cell-based. As to conditions: Homo sapiens, QGY7701, 144 h. The method, then:
as §1

The test system of another test is nine HCC cell lines. The experiment in a line: CCK‐8 cell proliferation assay. The conditions noted are these: Homo sapiens; post‐treatment for 144 h; read-out: half‐maximal inhibitory concentration (IC50), proliferation of HCC cell lines. The class given is cell-based. The method, then:
Cell viability was determined using Cell Counting Kit‐8 (CCK8; Dojindo) or 3‐(4, 5‐dimethylthiazol‐2‐yl)‐2,5‐diphenyltetrazoliumbromide (MTT, Sigma Aldrich) assay. […] Consequently, cell viability was determined using a microplate reader (Thermo Fisher) at 450 nm for CCK8 assay, or 570 nm for MTT assay, at different time points. The IC50 values and CI values were analyzed and calculated using GraphPad Prism 8 and CompuSyn (version 1.0; http://www.combosyn.com), respectively.

Test [1] addresses Truncated human LSD1 (residues 172–836) (Homo sapiens, UniProt O60341). Kind of test: Surface plasmon resonance (Biacore). The class given is binding. The conditions noted are these: 25°C, read-out: dissociation constant (KD). On the technique in general: SPR reads the build-up and loss of mass on a sensor chip optically.
Method: Briefly, the truncated LSD1 was cloned into a pET28a plasmid and expressed in Escherichia coli BL21(DE3) at 18°C (Novagen). The fusion protein was purified by the nickel charged nitrilotriacetic acid (Ni‐NTA, GE Healthcare) with buffer A (20 mM Tris‐HCl, pH 8.5, 10 mM imidazole, 500 mM NaCl, and 2 mM dithiothreitol DTT) and buffer B (20 mM Tris‐HCl, Ph 8.5, 500 mM imidazole, 500 mM NaCl, and 2 mM DTT). Then, LSD1 was digested overnight with Thrombin Protease (Sigma Aldrich) to remove His‐tag and dialyzed against buffer C (20 mM Tris‐HCl, pH 8.5, 150 mM NaCl, and 2mM DTT) overnight at 4°C. The next day, the target protein was applied to Ni‐NTA again to remove the uncleaved His‐tag protein. LSD1 without His‐tag was further purified by an S200 16/600 column (GE Healthcare) in buffer C. The quality of purified LSD1 was checked by sodium dodecyl sulphate‐polyacrylamide gel electrophoresis (SDS‐PAGE).[47]
LSD1 protein was immobilized on a CM5 sensor chip by the amine‐coupling method. […] The binding kinetics was analyzed using BIAevaluation software (version 4.1, Biacore).

For the compound `O=C(O)c1ccc(CN2CCC(CN[C@@H]3C[C@H]3c3ccccc3)CC2)cc1` [GSK2879552], the IC50 with HuH7, in the test on JHH7, in the test with HepG2, with HuH6, in the test on HCCLM3 and with PLC/PRF/5 was greater than 100 µM in each case. Besides, the IC50 with Hep3B is greater than 100 µM; in the test with SK-Hep-1 it was greater than 100 µM; in the test on QGY7701, greater than 100 µM; in the test with nine HCC cell lines, no less than 28.6 µM.
Turning to `C/C(=N\NC(=O)c1cccc(S(=O)(=O)N2CCOCC2)c1)c1cc(Cl)ccc1O` [SP2509], in test [1], the Kd – broadly, the constant that tells how readily two partners part at equilibrium – came to 0.0198 µM.
With `N[C@H]1CC[C@H](N[C@@H]2C[C@H]2c2ccccc2)CC1` [ORY1001], the IC50 in the test on HuH7 is greater than 100 µM; in the test on JHH7, 56.2 ± 9.07 µM; with HepG2, greater than 100 µM; in the test with HuH6, 46.3 ± 1.39 µM; with HCCLM3, greater than 100 µM; in the test on PLC/PRF/5, greater than 100 µM. Besides, the IC50 with Hep3B is 28.6 ± 6.72 µM; in the test on SK-Hep-1, 35.8 ± 5.05 µM; in the test with QGY7701, greater than 100 µM; in the test with nine HCC cell lines, no less than 28.6 µM.
